# Assay results taken from US20050261162A1, “Pharmaceutical composition for preventing and treating cancer and treating an inflammation” (priority 2001, published 2005).
# Values joined by “and” are separate entries in the source; they are usually repeats but may differ in a detail not shown here. Equal entries are not always repeated.
# Experiments:
# HL-60 cells = test: Apoptosis morphology in HL-60 cells (Hoechst 33258 staining, fluorescence microscopy); type: cell-based, Human; conditions: xanthorrhizol 40 μM, 24 hr
# Method: Human promyelocytic leukemia (HL-60) cells were maintained at 37° C. in a humidified atmosphere of 95% air and 5% CO2 in RPMI 1640 supplemented with 10% (v/v) heat-inactivated fetal bovine serum (FBS). HL-60 cells were cultured in 6-well plate in RPMI 1640 medium containing 10% FBS in the absence or presence of the methanolic extract of Curcuma xanthorrhiza (15 μg/ml) and xanthorrhizol (40 μM) and centrifuged after 24 hr. 4% neutral buffered formaline was added to the cell and the mixture was transferred to slides, which were left at room temperature for dryness. The fixed cells were washed in PBS, air-dried and stained with DNA-specific fluorochrome Hoechest 33258 for 1 min. The adhered cells were washed with PBS, air dried, and mounted with 50% glycerol. The slides were observed by fluorescence microscopy.
# IκBα = test: Inhibition of IκB degradation in mouse skin treated with TPA (western blotting); type: in vivo; conditions: mouse skin cytoplasmic extract, topical pretreatment before TPA
# Method: To examine the effect of xanthorrhizol on IκB, the level of IκB was measured in mouse skin. Cytoplasmic extract was prepared as follows. The mouse skin tissue obtained by the same method of embodiment 4 was homogenized in hypotonic buffer solution [10 mM HEPES, pH 7.8, 10 mM KCl, 2 mM MgCl2, 1 mM DTT, 0.1 mM EDTA, 0.1 mM phenylmethylsulfonyl fluoride (PMSF)]. To the homogenates was added 125 μl of 10% Nondiet P-40 solution and the mixture was then centrifuged for 30 sec. The supernatant (cytoplasmic extract) was electrophoresized on the 12% SDS-polyacrylamide gel. Blot was transferred from SDS-polyacrylamide gel to PVDF membrane, blocked with 5% fat-free dry milk-PBST buffer for 2 hr at room temperature and then washed in PBST buffer. Membrane was incubated for 2 hr at room temperature with rabbit IκBα polyclonal antibody (Santa Cruz Product, Santa Cruz, Calif., USA). Blot was rinsed with PBST, incubated with anti-rabbit horseradish peroxidase-conjugated secondary antibody (Santa Crus product, Santa Cruz, Calif., USA) and again washed 3 times in PBST buffer for 5 min. Transferred protein was visualized with an ECL detection kit.
# COX-2 = target: T1, COX-2 (Mus musculus, UniProt Q05769); test: Inhibition of LPS-induced COX-2 activity (PGE2 production) in RAW264.7 macrophage cells; type: cell-based; conditions: LPS 1 μg/ml, 16 hr
# T1 construct: endogenous in cells; host or cells: RAW264.7 macrophage cells, LPS-stimulated
# T1 sequence (Q05769 18-604): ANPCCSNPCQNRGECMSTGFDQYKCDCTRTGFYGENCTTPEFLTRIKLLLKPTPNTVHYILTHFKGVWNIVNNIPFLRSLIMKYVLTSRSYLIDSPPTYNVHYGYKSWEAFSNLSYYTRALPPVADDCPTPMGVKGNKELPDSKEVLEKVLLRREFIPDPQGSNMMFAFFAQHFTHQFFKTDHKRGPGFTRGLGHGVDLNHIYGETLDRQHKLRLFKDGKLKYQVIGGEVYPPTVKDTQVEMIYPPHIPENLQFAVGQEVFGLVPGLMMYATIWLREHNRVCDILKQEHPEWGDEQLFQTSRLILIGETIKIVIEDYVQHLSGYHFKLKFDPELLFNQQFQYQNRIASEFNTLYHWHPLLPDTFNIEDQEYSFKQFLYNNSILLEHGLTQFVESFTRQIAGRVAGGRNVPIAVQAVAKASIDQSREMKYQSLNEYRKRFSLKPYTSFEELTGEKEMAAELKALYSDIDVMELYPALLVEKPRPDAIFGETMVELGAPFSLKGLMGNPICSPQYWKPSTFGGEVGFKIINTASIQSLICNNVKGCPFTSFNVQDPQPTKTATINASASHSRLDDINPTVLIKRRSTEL
# Method: If a cell was treated with LPS, the activity of COX-2 increases. On the basis of this fact, to investigate the effect of xanthorrhizol on LPS-induced COX-2 activity, the quantity of PGE2 released from cells was measured as follows.
# RAW264.7 macrophage cells were maintained in DMEM supplemented with penicillin-streptomycin and 10% FBS at 37° C., in 5% CO2 of humidified air. The cells (10×10^5 cells/ml, 200 μl) were allowed to adhere for 4 hr in the presence of aspirin (500 μM) in a 96-well culture plate to inhibit irreversibly COX activity in cells, washed 3 times with media, and then incubated in the fresh medium with 1 μg/ml of LPS. Xanthorrhizol was simultaneously added to each well. After an additional 16 hr incubation, the media were recovered and analyzed by PGE2 enzyme immunometric assay. The medium recovered from each well was added to each well attached anti-PGE2 antibody (Amersham Life Science, Arlington Heights, Ill.) with PGE2-acetylcholineesterase tracer, incubated for 18 hr at room temperature and then washed five times with 0.05% Tween 20-phosphate buffer solution. […] Absorbance at 405 nm was measured. PGE2 in each medium treated with xanthorrhizol was quantified in calibration curve graphed with standard PGE2. […] The percentage inhibition was expressed as [1-(PGE2 level of sample/PGE2 level of vehicle treated−control)]×100.
smiles,measurement,setting,value
CC(C)=CCC[C@@H](C)c1ccc(C)c(O)c1 [xanthorrhizol],morphological characteristics of apoptosis,HL-60 cells,distinct chromatin condensation and nuclear fragmentation
same,degradation of IκBα induced by TPA,IκBα,inhibited by xanthorrhizol in a dose dependent manner
same,IC50,COX-2,321 nM and 320 nM
same,percentage inhibition of LPS-induced PGE2 production (COX-2 activity),COX-2; concentration of not less than 1 μg/ml,not less than 98%
